In patent US20240216289A1, “LIPIDOID NANOPARTICLES FOR THE TREATMENT OF DISEASES AND DISORDERS” (Trustees of Tufts College, priority 2021, published 2024):
“Also recorded” adds a separate entry of the source.

What was measured:
[1] = test system: HEK293T cells; assay: 5′UTR and 3′UTR optimization in HEK293T cells (eGFP, flow cytometry); format: cell-based; conditions: LPF2k
Experimental: 5′UTR optimization in HEK293T cells. Prior to transfection, HEK293T cells were seeded on a 48-well plate at 40,000 cells/well, with 500 μL DMEM culture in each well. 6 groups were set with different treatments: Lipofectamine 2000 (LPF2k) only, pcDNA3.0-eGFP, pcDNA3.0-NCA7d-eGFP, pcDNA-70nt-eGFP, pcDNA3.0-Ces1d-eGFP and pcDNA3.0-S27a45′-eGFP. LPF2k was complexed each plasmid in equal amount (0.5 μg/0.5 μg) before being added to each well. At each time point (36 hrs, 60 hrs, 84 hrs and 108 hrs), cells were washed with PBS and then treated with 500 μL 0.25% Typsine-EDTA 10 (Gibco) for 3 min. Resuspended cells were applied to the Attune NxT Flow Cytometer (Thermo Fisher) directly (FIG. 10).
3′UTR optimization in HEK293T cell. Similar to 5′UTR optimization, thirteen 3′UTRs modified pcDNA3.0-Ces1d-eGFP and pcDNA3.0-70nt-eGFP were encapsulated in LPF2k at a 1:1 weight ratio and then transfected into HEK293T cells. At each time point (48 hrs, 72 hrs, 96 hrs and 120 hrs), cells were washed with PBS and then treated with 500 μL 0.25% Typsine-EDTA (Gibco) for 3 min. Resuspended cell were applied to the Attune NxT Flow Cytometer (Thermo Fisher) directly (FIG. 11).

[2] = test system: liver; assay: Mouse liver-directed 3′UTR and cap screening in mRNA format (L88 LNP, IVIS); format: in vivo, BALB/c mice; conditions: Lipid 88 delivery, 0.2 mg/kg IV
Experimental: Mouse liver-directed 3′UTR screening in mRNA format. 6-week-old female BALB/c mice were used for in vivo modified Fluc-eGFP mRNA screening with L88 LNP delivery. Each UTRs modified Fluc-eGFP mRNA were encapsulated in an optimal Lipid 88 formulation (L88:Chol:DOPC:DMG-PEG=16:4:2:1, w w) at the weight ratio of 1:10 in PBS solution (RNase-free). The L88/Fluc-eGFP mRNA complex was intravenously injected into the mice at a mRNA dose of 0.2 mg/kg. At each preset time point, mice were injected with 100 μL of D-Luciferin potassium salt (GoldBio) solution (15 mg/mL in PBS), anesthetized under isoflurane anesthesia, and evaluated using IVIS imaging system (Caliper Life Sciences, US).

[3] = test system: inguinal lymph nodes; assay: Luc mRNA expression in inguinal lymph nodes after subcutaneous tail-base injection of LNP/mLuc (IVIS); format: in vivo, Balb/c mice; conditions: subcutaneous at tail base, 6 h, bioluminescence
[4] = test system: liver; assay: Luc mRNA expression in liver after subcutaneous tail-base injection of LNP/mLuc (IVIS); format: in vivo, Balb/c mice; conditions: subcutaneous at tail base, 6 h, bioluminescence
[5] = test system: macrophages and dendritic cells (DCs) in inguinal lymph nodes; assay: Delivery of Cre mRNA to LNs in Ai14 reporter mice (tdTomato positive cells, flow cytometry); format: in vivo; conditions: LNP/Cre mRNA s.c., 48 h; result in words
[6] = test system: OVA; assay: ELISA for antibody titer after OVA mRNA vaccination; format: in vivo; conditions: 14 days after second dose
[7] = test system: IFN γ and IL-4 positive T cells; assay: IFN γ and IL-4 ELISpot after S protein mRNA vaccination; format: in vivo, mice; conditions: spleen day 28
Experimental: The blood and spleen were collected at day 28 for further analysis.
The T cell response after the vaccination was analyzed by IFN γ and IL-4 ELISpot (FIGS. 5A-C).
The T cell response after vaccination was tested by ELISpot assay.

Apolipoprotein A-II
eGFP expression, 3′UTR in pcDNA3.0-70nt-eGFP ([1]; 48-120 hrs): top-performing 3′UTR candidates | ARCA capped 70nt-Fluc-eGFP mRNA Fluc expression in the liver [2]: highest Fluc expression in the liver relative to other eight 3′UTR modifications

CCCCCCCCC(CCCCCC)C(=O)OCCCCCCN(CCCCO)CCCCCCOC(=O)C(CCCCCC)CCCCCCCC (stereo not shown) [ALC-0315]
Luc mRNA expression in inguinal (draining) lymph nodes [3]: obvious signal in draining LNs | Luc mRNA expression in liver [4]: significantly increased expression of Luc in liver; also recorded: significantly higher expression in liver | transfection of cells in inguinal lymph nodes [5]: less efficacy compared with 113-F2 LNP; also recorded: successfully delivered Cre mRNA to antigen-presenting cells (APC) | antibody response (total IgG, IgG1, IgG2c) [6]: peak antibody level

Pam3CSK4
Luc mRNA expression in inguinal (draining) lymph nodes [3]: decreased the mRNA expression in draining lymph nodes | transfection of cells in inguinal lymph nodes [5]: decreased the transfection efficacy | IL-4 positive T cells (ELISpot) [7]: increased the Th1 T cell response and percentage of IL-4 secreting T cells; also recorded: significantly induced IL-4 secreting T cells compared with all other groups

B1: Ces1d: 5′UTR fragment, sequence in Table 1 (nucleic acid)
DNA: CCACTAGTTCTAGAGGTACCTTGGACCCTCGTACAGAAGCTAATACGACTCACTATAAGGAGGCGGGTCCCCTGGTCCACAACAGAAGCATTGCTAAAGCAGCAGATAGCTCAGAGACCCACAGAGCCCTTGTCCTTCCACAGAATTCGCCACCATGGAAGA
eGFP expression, 5′UTR in pcDNA3.0-eGFP ([1]; 36-108 hrs): top-performing 5′UTR candidates
